Experimental data reported in patent US20250100963A1, “SULFONATED AND PHOSPHORYLATED AROMATIC MOLECULES” (Xavier University of Louisiana, priority 2023, published 2025).
Read-outs that look alike come from different tables or passages of the source.

Legend:
Assay type in all cases: biochemical
CatG [1] = biological target: T1, CatG (Homo sapiens, UniProt P08311); assay: Direct inhibition of human CatG, chromogenic substrate hydrolysis assay
T1 sequence (P08311 21-244): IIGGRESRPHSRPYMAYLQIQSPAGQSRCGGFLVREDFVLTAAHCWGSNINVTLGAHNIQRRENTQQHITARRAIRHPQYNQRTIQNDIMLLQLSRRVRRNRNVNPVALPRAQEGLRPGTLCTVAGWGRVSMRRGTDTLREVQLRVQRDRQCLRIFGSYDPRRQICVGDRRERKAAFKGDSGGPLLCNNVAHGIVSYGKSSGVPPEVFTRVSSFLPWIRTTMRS
Protocol: The method further comprises inhibition of proteases. […] To each well of a 96-well microplate containing 88 μl of 20 mM tris buffer containing 100 mM NaCl, 2.5 mM CaCl2, 0.1% PEG 8000 and 0.05% tween 80 was added 3 μl of CatG (final concentration of 30 nM), and 5 μl of H2O or potential inhibitor (final concentration of 0-100 μM). Following a 5-min incubation, 3 μl of CatG substrate was added (final concentration 750 μM) and the residual CatG activity was obtained from the initial rate of increase of absorbance at 405 nm. The relative residual activity of CatG at each of the inhibitor concentrations was obtained from the ratio of CatG activity in the presence and absence of the inhibitor. Logistic Equation (1) was used to plot the dose-dependence curve to obtain the IC50 (potency) and efficacy of CatG inhibition. Here, Y is the ratio of residual CatG activity in the presence of inhibitor to that in its absence, YO and YM are the minimum and maximum values of fractional residual CatG activity, respectively, IC50 is the concentration of the inhibitor that results in 50% inhibition of CatG activity and HS is the Hill slope.
To each well of a 96-well microplate containing 88 μl of 20 mM tris buffer containing 100 mM NaCl, 2.5 mM CaCl2, 0.1% PEG 8000 and 0.05% tween 80 was added 3 μl of CatG (final concentration of 30 nM), and 5 μl of H2O or potential inhibitor (final concentration of 0-100 μM). Following a 5-min incubation, 3 μl of CatG substrate was added (final concentration 750 μM) and the residual CatG activity was obtained from the initial rate of increase of absorbance at 405 nm. The relative residual activity of CatG at each of the inhibitor concentrations was obtained from the ratio of CatG activity in the presence and absence of the inhibitor. Logistic Equation (1) was used to plot the dose-dependence curve to obtain the IC50 (potency) and efficacy of CatG inhibition. Here, Y is the ratio of residual CatG activity in the presence of inhibitor to that in its absence, YO and YM are the minimum and maximum values of fractional residual CatG activity, respectively, IC50 is the concentration of the inhibitor that results in 50% inhibition of CatG activity and HS is the Hill slope.

Human FXIa = Human FXIa (Homo sapiens, UniProt P03951); assay: Direct inhibition of FXIa, chromogenic substrate hydrolysis assay; conditions: Tris-HCl buffer
Protocol: Direct inhibitions of thrombin (FIIa), factor VIIa (FVIIa), factor IXa (FIXa), factor Xa (FXa), FXIa, factor XIIa (FXIIa), trypsin and chymotrypsin were evaluated using the corresponding chromogenic substrate hydrolysis assays as previously reported. Briefly, to each well of a 96-well microplate containing 85-185 μl of […] Tris buffer containing 100 mM NaCl, 2.5 mM CaCl2, 0.1% PEG 8000, and 0.05% tween 80 at 25 (thrombin) or 37° C. (FVIIa, FIXa, FXa, FXIa, FXIIa, chymotrypsin, and trypsin) were added 5 μl of enzyme (thrombin, FVIIa, FIXa, FXa, FXIa, FXIIa, chymotrypsin, and trypsin) and 5 μl of the inhibitor. Following an incubation period of 5 min, the appropriate chromogenic substrates (Spectrozyme TH, Spectrozyme FIXa, Spectrozyme FXa, S-2366, Spectrozyme FXIIa and S-2222) were added and the residual enzyme activity was measured from the initial rate of increase in absorbance at 405 nm. Relative residual enzyme activity as a function of the inhibitor concentration was fitted using Logistic Equation (1) to obtain the IC50 (potency), A Y % (efficacy) of enzyme inhibition, and HS (Hill slope). The concentrations of enzymes and substrates in microplate cells were: 6 nM and 50 μM for thrombin; 1.09 nM and 125 μM for FXa; 5 nM and 125 μM for FXIIa; 89 nM and 850 μM for FIXa; 8 nM and 1000 µM for FVIIa (along with 40 nM recombinant tissue factor); 72.5 ng/ml and 80 μM for bovine trypsin; and 500 ng/ml and 240 μM for bovine chymotrypsin.

CatG [2] = biological target: T1, CatG; assay: CatG-mediated degradation of laminin, SDS-PAGE; conditions: inhibitor 10-1000 μM, CatG 0.8 μM, 60 min
Protocol: The method further comprises inhibition of CatG-mediated degradation of laminin. Inhibition of CatG cleavage of laminin by sulfonated or phosphorylated compounds was studied using SDSPAGE. Briefly, CatG (0.8 μM) was incubated with different concentrations of the inhibitor (final concentrations; 0 μM, 10 μM, […] and 1000 μM), and laminin (20 μg). Following incubation for 60 min, the samples were quenched using SDS-PAGE loading buffer containing DTT and subjected to electrophoresis on 10% SDS-PAGE pre-cast gels. The gels were visualized by silver staining. […] In fact, based on their in vitro properties, it was reasoned that these inhibitors could protect extracellular matrix components from proteolysis mediated by proteinases activated during the inflammatory process including CatG. Accordingly, the in vitro effect of compound of Formula II on the CatG-mediated proteolysis of laminin, a non-collagenous component of ECM and basement membranes was studied. […] Thus, SDS-PAGE analyses indicate that sulfonated molecule inhibition of CatG is physiologically relevant.
Inhibition of CatG cleavage of laminin by sulfonated compounds was studied using SDSPAGE. Briefly, CatG (0.8 μM) was incubated with different concentrations of the inhibitor (final concentrations; 0 μM, 10 μM, 100 μM and 1000 μM), and laminin (20 μg). […]

Human FXIa, sequence (P03951 388-625): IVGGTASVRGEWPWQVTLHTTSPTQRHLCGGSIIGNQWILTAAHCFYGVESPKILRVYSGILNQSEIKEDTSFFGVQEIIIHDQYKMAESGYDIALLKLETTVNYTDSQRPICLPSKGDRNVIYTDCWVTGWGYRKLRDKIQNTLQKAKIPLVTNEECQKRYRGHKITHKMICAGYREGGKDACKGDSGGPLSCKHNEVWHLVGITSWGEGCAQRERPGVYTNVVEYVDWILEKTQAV
Human FXIa, sequence (P03951 19-387 partner): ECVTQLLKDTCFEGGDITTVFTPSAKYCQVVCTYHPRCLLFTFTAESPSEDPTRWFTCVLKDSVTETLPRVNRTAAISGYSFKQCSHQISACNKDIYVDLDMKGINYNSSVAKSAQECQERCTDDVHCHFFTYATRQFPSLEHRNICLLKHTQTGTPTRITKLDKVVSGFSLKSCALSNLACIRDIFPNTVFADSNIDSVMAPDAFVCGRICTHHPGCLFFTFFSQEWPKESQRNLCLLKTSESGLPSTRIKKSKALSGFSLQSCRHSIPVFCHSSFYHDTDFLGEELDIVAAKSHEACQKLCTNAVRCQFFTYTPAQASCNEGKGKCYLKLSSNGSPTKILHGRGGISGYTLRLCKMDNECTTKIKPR

`O=C(Nc1cc(C(=O)Nc2ccc(S(=O)(=O)O)cc2S(=O)(=O)O)cc(C(=O)Nc2ccc(S(=O)(=O)O)cc2S(=O)(=O)O)c1)Nc1cc(C(=O)Nc2ccc(S(=O)(=O)O)cc2S(=O)(=O)O)cc(C(=O)Nc2ccc(S(=O)(=O)O)cc2S(=O)(=O)O)c1` [Formula II, 4,4′,4″,4′-((5,5′-(carbonylbis(azanediyl))bis(isophthaloyl))tetrakis(azanediyl))tetrakis(benzene-1,3-disulfonic acid)] was tested, and the IC50 (CatG [1]; Table 6, read-out: CATG IC50) was 0.09 µM, the “HS (Hill slope)” value (CatG [1]; Tris buffer pH 7.4, 37° C.) was 1.5 ± 0.3 and the “ΔY (efficacy)” value (CatG [1]; Tris buffer pH 7.4, 37° C.) was 82.5 ± 7.4%. The IC50 (CatG [1]; Tris buffer pH 7.4, 37° C., 100 mM NaCl, read-out: IC50) was 0.09 ± 0.01 µM, the IC50 (Human FXIa) was greater than 500 µM and the “Protection of laminin from cleavage by CatG” value (CatG [2]) was “protected completely”.
